Here are results for one molecule from patent US20120283212A1, “USE OF POLYSACCHARIDES FOR TREATING STRESS AND ANXIETY” (ROQUETTE FRERES, priority 2009, published 2012).

For test [1], the system named is male Wistar rat. The experiment in a line: Functional observational battery (FOB). The conditions noted are these: diazepam 3 mg/kg on D14; for Spontaneous activity on D14 (score): score 0=excited, 1 to 3 moderate rapid movements, 4 no activity; for Finger approach reaction on D14 (score): score 0=none, 1 to 3=slight to strong escape; for Respiratory rate on D14 (score): score 0=slow, 1=normal, 2 rapid. The class given is in vivo. On the procedure: The effects of an oligosaccharide administered orally at doses of 0.7 and 1.4 g/kg for 14 days were evaluated in a functional observational battery (FOB) in the male Wistar rat. The objective of this FOB test is to evaluate the change in behavioral, neurological and physiological parameters of the rats according to the products tested.
For this, a polysaccharide (PS1) as defined in table 1 is administered by esophageal gavage daily at these two doses for 14 days (6 rats per group). Similarly, a vehicle control consisting of spring water is administered under these conditions. The reference positive control is diazepam: from D0 to D13, methylcellulose is administered to the rats and on D14, diazepam at 3 mg/kg of body weight is also administered.
The animals are subjected to the functional observational battery before treatment on D0 and at the end of the study on D14.
Each test comprises three observational phases: • a direct observational phase during which the animal is not disturbed, • an active observational phase during which the animal is handled, • a phase devoted to evaluating the reactions of the animals to reactivity tests.
Several variables are recorded: • Behavioral effects: spontaneous locomotor activity, locomotor behavior disorders, emotionality (vocalization frequency), touch escape reaction, irritability, provoked aggressiveness and freezing behaviors, sleeping/awakening, urination and defecation, sensorimotor responses (visual placing, toe pinch and sound stimulus reaction). • Neurological effects: pupillary response, palpebral reflex, pelvic elevation, tail position, limb and abdominal muscle tone, righting test, grip strength test, suspension test, tremors and piloerection. • Physiological effects: salivation, lacrimation, diarrhea, rectal temperature, heart and respiratory rate.
Definition of the scores: • Spontaneous activity: 0=excited; 1 to 3 moderate rapid movements; 4: no activity. • Finger approach reaction: 0=none; 1 to 3=slight to strong escape. • Respiratory rate: 0=slow; 1=normal; 2 rapid. • Sound stimulus startle reaction: 0=slight; 1=<1 cm; 2=>1 cm.

The subject of test [2] is male Wistar rat. Put plainly: Conditioned Defensive Burying (CDB) test. The conditions noted are these: the greater the stress, the higher the score. The class given is in vivo. As to the method:
The anti-stress effects of a PS1 polysaccharide, administered orally for 14 days, were evaluated in the male Wistar rat in the Conditioned Defensive Burying (CDB) test.
For this, the PS1 is administered by esophageal gavage daily at the doses of 0.7, 1.4 and 2.8 g/kg of body weight for 14 days (8 rats per group). Similarly, a vehicle control represented by spring water is administered under the same conditions. The reference positive control is diazepam: from D0 to D13, methylcellulose is administered to the rats, and on D14, diazepam at 1 mg/kg or 3 mg/kg of body weight is administered to the rats. The PS1 and diazepam mixture is also studied: the PS1 is administered for 14 days alone, and on D14, diazepam at 1 mg/kg is added to the esophageal gavage of the PS1.
On D14, the rats are subjected to the Conditioned Defensive Burying (CDB) test. For this, an electric probe is inserted into a cage before the start of the test. Each rat is placed in the experimental device on the opposite side to the probe and a single electric shock, of weak intensity (2 mA), is delivered to the animal at the moment it places its front paw on the probe for the first time. Following the shock, the behavior of the rat is recorded for five minutes; an overall stress score is attributed for each rat. The greater the stress, the higher the score.

As for `CN1C(=O)CN=C(c2ccccc2)c2cc(Cl)ccc21` [Diazepam, diazepam], in the test on male Wistar rat [1], the “Heart rate on D14, in comparison with the vehicle” value is “significantly slower”; the “Spontaneous activity on D14 (score)” value is 2.16; the “Finger approach reaction on D14 (score)” value was 0.18; the “Respiratory rate on D14 (score)” value was found to be 1.14. Further, in the test with male Wistar rat [1] (listed as reference), the “Spontaneous activity on D14 (score)” value was “tend to be significantly less active”, the “Finger approach reaction on D14 (score)” value is listed as “significantly less reactive to a finger approach” and the “Respiratory rate on D14 (score)” value was “significantly slower”. The “Sound stimulus startle reaction on D14 (score)” value in the test on male Wistar rat [1] (score 0=slight, 1=<1 cm, 2=>1 cm) is 0.00. In the test on male Wistar rat [2] (diazepam 1 mg/kg on D14), the “Overall stress score (Mean ± SEM)” value was 92.57 ± 17.99. Besides, the “Overall stress score (Mean ± SEM)” value with male Wistar rat [2] (diazepam 3 mg/kg on D14) is recorded as 65.25 ± 7.15. For the same molecule, in the test with male Wistar rat [2] (diazepam 3 mg/kg on D14, listed as diazepam), the “Overall stress score (Mean ± SEM)” value is “significantly lower than that of the vehicle group”.
